Bounds are passed on as bounds.

By Papp A→B is commonly meant the apparent permeability from the apical to the basolateral side of a cell layer. Lower therefore signals poor permeation.

For data set [1], the system named is T. cruzi, strain Tulahuen C4 amastigotes. Put plainly: In vitro activity against T. cruzi intracellular amastigotes in L6 host cells. The conditions noted are these: for IC50: Trypanosoma cruzi, TULAHUEN, L6, read-out: T. cruzi IC-50; for Selectivity: IC50 in L6 cells/IC50 in T. cruzi, compounds 9–13. The data set is classed as cell-based, Trypanosoma cruzi.
The test system of data set [2] is guinea pigs. The conditions noted are these: guinea pigs treated with Bnz; cited from earlier work.
For data set [3], the system named is S. typhimurium strains. The settings on record: cited from earlier work.
The nature of data set [4]: Cytotoxicity assessment in the host L6 cells. In kind it is cell-based. The conditions noted are these: rat, L6 cells (rat skeletal myoblasts).
Data set [5] has as its system transgenic T. cruzi Y strain expressing firefly luciferase. Kind of data set: In vivo anti-T. cruzi fast luminescence assay in infected Balb/c mice. Set-up: species or system Trypanosoma cruzi. The settings on record: for in vivo antichagasic activity compared with Bnz: 10-day treatment, Bnz 15 mg/kg/day.
Data set [6] has as its system Balb/c mice. Put plainly: Apparent toxicity in treated T. cruzi-infected mice. The conditions noted are these: 30 mg/kg/day i.p., 5- and 10-day treatment. The data set is classed as in vivo.
The nature of data set [7]: Microsomal stability screen. The data set is classed as in vitro ADME. The settings on record: mouse, microsomes, 1 h, 1 µM, pH 7.4.
Data set [8] in a line: Plasma stability screen. In kind it is in vitro ADME, mouse. The settings on record: 5 µM.
Data set [9] is described as follows: Caco-2 monolayer permeability. The conditions noted are these: human. In general terms: Caco-2 monolayers are a common model of the intestinal barrier.
Data set [10] can be described thus: in vitro. The conditions noted are these: human, Caco-2.
For data set [11] the following is noted: logD at pH 6; threshold for high permeability; cited from earlier work.
Data set [12] has as its system zebrafish embryos. Put plainly: Toxicity studies in zebrafish embryos. The conditions noted are these: incubation of embryos; data not shown.
Where [13] appears, read: i.p., 5–10 days treatment at the doses of Figure 1, more than 80 and up to 100%.

For the molecule `O=C(Cn1ccnc1[N+](=O)[O-])NCc1ccccc1` [Bnz, benznidazole], the IC50 in [1] worked out at 1430 nM. Further, in data set [2], the “mutagenic derivatives in serum and urine detectable by the Ames test” value is “not metabolized by the mammalian host into stable mutagenic derivatives”. The “concentrations showing significant mutagenicity” value in data set [3] is less than 62 µg/mL.
With `Cl.O=[N+]([O-])c1ncn(CCCNCCc2cccc(C(F)(F)F)c2)n1` [Compound 9, [3-(3-nitro-1H-1,2,4-triazol-1-yl)propyl] ({2-[3-(trifluoromethyl)phenyl]ethyl})amine hydrochloride], in data set [1], the Selectivity came out at 116. Also, the IC50 stood at 775 nM in data set [1] and 90100 nM in data set [4]. In addition, the “drop of parasite index” value in [5] (30 mg/kg/day i.p., after 5-day treatment) is reported as “about 88%”; in data set [5] (30 mg/kg/day i.p., after 10-day treatment) it was roughly 85%; in data set [5] (setting [13]) it was “more than 80%”. For the same molecule, in data set [6], the “toxicity in treated mice” value is on record as “without any sign of toxicity”.
On to `O=[N+]([O-])c1ncn(CCCNc2nc3ccc(Cl)cc3s2)n1` [Compound 10, 6-chloro-N-[3-(3-nitro-1H-1,2,4-triazol-1-yl)propyl]-1,3-benzothiazol-2-amine], for which, in data set [1], the Selectivity stood at 1725 and the IC50 came to 59 nM. The IC50 in [4] worked out at 102000 nM. Moreover, the “in vivo antichagasic activity” value in [5] (10 mg/kg/day i.p., 5- or 10-day treatment) was “failed to demonstrate in vivo antichagasic activity”. Besides, in [7], the “Mean remaining parent comp (+)NADPH” value is given as 1.0% and the “Mean remaining parent comp (−)NADPH” value turned out to be 108%. Moreover, the “Mean remaining parent comp” value in [8] (mouse plasma, 60 min, 37°C) is recorded as 87.3%.
Turning to `O=[N+]([O-])c1ncn(CCCCNS(=O)(=O)c2ccc(Cl)s2)n1` [Compound 11, 5-chloro-N-[4-(3-nitro-1H-1,2,4-triazol-1-yl)butyl]thiophene-2-sulfonamide], in data set [1], the Selectivity is given as 277.5 and the IC50 was determined as 462 nM. Also, in data set [4], the IC50 was 128000 nM. In data set [5] (15 mg/kg/day i.p., after 10 days of treatment, greater activity than Bnz), the parasite signal result is listed as “no detectable parasite signal”. Further, the “drop of parasite index” value in data set [5] (setting [13]) is on record as “more than 80%”.
On to `O=[N+]([O-])c1ncn(CCCCNS(=O)(=O)c2cc(Cl)c(Cl)s2)n1` [Compound 12, 4,5-dichloro-N-[4-(3-nitro-1H-1,2,4-triazol-1-yl)butyl]thiophene-2-sulfonamide], for which, in [1], the Selectivity is 261.1 and the IC50 came to 373 nM. In data set [4], this molecule yielded an IC50 of 97300 nM. In addition, the “in vivo antichagasic activity compared with Bnz” value in data set [5] (15 mg/kg/day i.p.) was “failed to perform better than Bnz”.
On to `O=C(NCCCCn1cnc([N+](=O)[O-])n1)c1nc2ccccc2s1` [Compound 13, N-[4-(3-nitro-1H-1,2,4-triazol-1-yl)butyl]-1,3-benzothiazole-2-carboxamide], for which, in data set [1], the Selectivity stood at 364.4 and the IC50 is 422 nM. In addition, in data set [4], the IC50 worked out at 154000 nM. For the same molecule, the “in vivo antichagasic activity compared with Bnz” value in [5] (15 mg/kg/day i.p.) is “failed to perform better than Bnz”.
On to `CC(C)[N+](C)(CCOC(=O)C1c2ccccc2Oc2ccccc21)C(C)C` [Propantheline], for which the “Mean remaining parent comp” value in data set [8] (mouse plasma, 60 min, 37°C) amounted to 30.4%.
Take `CNC(=C[N+](=O)[O-])NCCSCc1ccc(CN(C)C)o1` [Ranitidine]: the apical-to-basolateral permeability (Papp A→B) at 2 h, 10 µM in data set [9] was determined as 0.5 ×10⁻⁶ cm/s.
`CC(=O)CC(c1ccccc1)c1c(O)c2ccccc2oc1=O` (stereo not shown) [Warfarin]: the “Mean remaining parent comp (+)NADPH” value in data set [7] is on record as 83.9%. In addition, the “Mean remaining parent comp” value in [8] (mouse, plasma, 1 h) was found to be 97.8%. Further, the apical-to-basolateral permeability (Papp A→B) at 2 h, 10 µM in data set [10] worked out at 44.2 ×10⁻⁶ cm/s.
With `CC(CCc1ccccc1)NCC(O)c1ccc(O)c(C(N)=O)c1` (stereo not shown) [labetalol], the logD6 in data set [11] is given as −0.42.
Turning to `CC1CS(=O)(=O)CCN1/N=C/c1ccc([N+](=O)[O-])o1` (stereo not shown) [nifurtimox], the “effect on zebrafish embryos' development” value in data set [12] is “weakened heart beat, pericardial oedema or death”.

(Values after paper PMC3948331 (Future medicinal chemistry, 2013).)
